# Measured values reported in US20020068274A1, “Novel method for assessing recoding in vitro and in vivo” (priority 2000, published 2002).
# Experiments:
# [1] = target: Ova257-264-specific B3Z hybridoma; assay: β-galactosidase-based T hybridoma stimulation assay; parameters: species or system mouse; conditions: L-Kb cells infected with rVV at 10 pfu/cell or pulsed with peptide 10^-9 M; FIGS. 4, 5
# Description: FIG. 4. The TK frameshifting element directs expression and in vitro presentation of Ova257-264 that has been shifted to RF+1. The TK frameshifting element was inserted into the SphI site of NP/Ova257-264, shifiting all downstream NP/Ova257-264-encoding sequence, including Ova257-264, into RF+1 (TK-FS). Negative and positive control TK sequences (TK-NC, and TK-IF respectively) were also inserted. L-K^b cells were infected overnight with rVVs expressing these three constructs, along with a negative control VV (VV-NC). […]
# Assays for epitope expression based upon use of the B3Z T hybridoma that produces β-galactosidase upon activation, have been described previously (Wherry, et al, J. Immunol 163, no. 7:3735, 1999). […] After overnight incubation, β-galactosidase production was assessed using the fluorogenic substrate methyl umbelliferone-βgalactoside as described by Sanderson and Shastri (Sanderson and N. Shastri, Internal Immunology 158:3227, 1997).
# The frameshifting element derived from the mutant (TK-FS), as well as control sequences, in which the G run required for frameshifting was deleted (TK-NC), were tested following insertion into the SphI site of the NP/Ova257-264 construct (see FIG. 2) and recognition of Ova257-264 was monitored. […]
# [2] = test system: antizyme; conditions: cited from earlier work
# [3] = test system: transformed cell lines; conditions: cited from earlier work
molecule,measurement,setting,value
"Ova257-264: synthetic version of the H-2Kb-restricted epitope within ovalbumin (ESIINFEK; UniProt P01012 257-264, looked up, fragment)",Kb/Ova257-264-specific recognition (β-galactosidase production by B3Z versus BWZ),[1],strong specific response
N=C(N)NCCCCN [agmatine],polyamine levels,[2],lowered polyamine levels
same,antizyme expression,[2]; via effect on +1 frameshifting,capable of stimulating antizyme expression
same,growth of transformed cell lines,[3],growth inhibition of transformed cell lines
